Measured values as given in patent US20090099502A1, “Microneedle Device And Transdermal Administration Device Provided With Microneedles” (HISAMITSU PHARMACEUTICAL CO., INC., priority 2006, published 2009).
Entries after “also recorded” stand apart in the source; their conditions may differ. Structures can show the parent of a compound that is named as a salt.

Assays:
[1] = tested on: hairless rat skin; assay: Skin permeation test of granisetron hydrochloride, blister-type drug product (Example 5); type: in vitro ADME; settings: in examples 4 and 5
Procedure: In this experiment, the coating carrier was prepared for the entire surface of microneedles by using only 5 wt. % polyvinyl alcohol (PVA117), and the microneedles (800 pile/patch) were coated all over the surface with 30 μl/patch and dried for 12 h at room temperature for fixing. After piercing the skin with the microneedles, […] 32 wt. % aqueous solution of granisetron hydrochloride, 30 μl, was applied through the through-holes (openings) on the microneedle substrate. There were two control groups. In one of these, the microneedles were not given any coating and 30 μl of the drug solution alone was applied through the through-holes. In the other control group, an aqueous solution containing 5 wt. % of polyvinyl alcohol and 32 wt. % of granisetron hydrochloride was prepared, as before, as the coating carrier, and the microneedles (800 piles/patch) were coated all over the surface with 15 μl/patch of this coating carrier.
Skin was then removed from the trunk of a hairless rat and fitted to a vertical acrylic cell (2.54 cm^2) with the dermis side facing the receptor layer, and the whole assembly was placed in a constant temperature chamber set at 37° C. […] The drug content of the receptor solution obtained at each time of sampling was measured by HPLC (Excitation: 298 nm, fluorescence: 353 nm). […]

[2] = tested on: hairless rat skin
Source text: (§1) A piece of foam tape (#9773, 7.84 cm^2) of 3M Company was pasted on the back side of the microneedle substrate in such a way that the adhesive layer of the tape would face the skin. The projecting ends of the tape were attached to the skin to bring the microneedle side of the microneedle substrate in close contact with the skin. To start the experiment, the microneedle substrate was placed on the skin and pressure applied (2 kg/patch for 5 seconds) on the substrate with a finger.
(§2) Microneedles (800 piles/patch) were coated all over their surfaces with 30 μl/patch one of the coating carriers, and dried at room temperature for 12 h for fixing. Skin removed from hairless rats was pierced with microneedles coated with the drug formulations, including those having their free forms, and samples were removed periodically. Phosphate buffer solution (PBS) was used for the receptor layer. The receptor solution sample, sampled at different time points, and acetonitrile were mixed at 1:1 ratio, stirred, centrifuged (15,000 rpm, 5° C., 5 minutes), then the supernatant was recovered, and its drug content measured by HPLC.
Animal species: Hairless rat (n=3)

[3] = whether in the free or the salt form; cited from earlier work
[4] = tested on: hairless rat skin; assay: Skin permeation tests with a drug in its free and salt forms using hairless rats (Example 7); settings: both the fumarate and the free form, PVA117 coating
Source text: as §1, §2
Animal species: Hairless rat (n=3)

| skin permeability [1] | amount of drug permeation ([2]; hairless, rat, 16 wt. %) | maximum flux, Free form ([2]; hairless, rat, 16 wt. %) | maximum flux, Salt ([2]; hairless, rat, 16 wt. %) | skin permeability [4] | SMILES | solubility in water [3] | maximum flux, salt form compared with free form [2] |
| --- | --- | --- | --- | --- | --- | --- | --- |
| good skin permeability | – | – | – | – | CN1C2CCCC1CC(NC(=O)c1nn(C)c3ccccc13)C2 (stereo not drawn) [granisetron hydrochloride] | – | – |
| – | about 1 μg | 0.1< μg/cm^2/hr | 0.1< μg/cm^2/hr | – | CCCN1C[C@H](CSC)C[C@@H]2c3cccc4[nH]cc(c34)C[C@H]21 [Pergolide, pergolide] | almost no solubility in water; also recorded: extremely low solubility | – |
| – | – | 100 μg/cm^2/hr | 180 μg/cm^2/hr | – | CCCN[C@H]1CCc2nc(N)sc2C1 [Pramipexol, pramipexol] | – | higher maximum flux in their salt form than in their free form |
| – | – | 60 μg/cm^2/hr | 90 μg/cm^2/hr | good skin permeability | CC(C)NCC(O)COc1ccc(COCCOC(C)C)cc1 (stereo not drawn) [Bisoprolol, bisoprolol] | – | higher maximum flux in their salt form than in their free form |
